pIC50: −log10 of the molar value. Marks after values point to notes of the source that are not given here.
Experiments:
[1] = system: fertilizability of ovulated cumulus-oocyte complexes; assay: In-vivo action on post-ovulatory in-vitro fertilization; parameters: species or system mice (strain: B6D2F1); details: 1-10 mg/kg s.c.
From the text: 4.3 In-Vivo Action on Post-Ovulatory In-Vitro Fertilization:
Substances can exert an influence on fertility by decreasing the fertilizability of oocytes or cumulus-oocyte complexes. In order to study such effects, substances can be administered in vivo and subjected to in vitro fertilization after ovulation of cumulus-oocyte complexes has taken place. The in-vitro fertilization rate, where no test substance is any longer present, allows conclusions as to the in-vivo effects of the test substances.
Immature female mice (strain: B6D2F1, Charles River, Suelzfeld, age: 19-25 days) were kept in Macrolon cages in rooms with controlled illumination (12 hrs darkness: 12 hrs light), fed with a standard diet and provided with drinking water ad libitum.
The mice were primed with PMSG (pregnant mare serum gonadotropin) (10 IU/animal i.p.). After 48 hours, a stimulus triggering ovulation was created in the animals by one administration of 10 IU/animal i.p. (hCG, human chorionic gonadotropin). The test substances were dissolved in benzyl benzoate/castor oil (1+4 v/v) and administered in a volume of 0.1 ml s.c. 1 hour before hCG (n=5 animals per group). Fourteen hours after hCG administration, the animals were killed. […] Twenty-four hours after the incubation with the sperms, the number of fertilized oocytes is established and the percentage fertilization rate determined

[2] = molecular target: EP2 subtype of the human PGE2 receptor (hEP2 receptor) (Homo sapiens, UniProt P43116); assay: cAMP antagonism test, human prostaglandin E2 (subtype EP2) receptor signal; assay type: cell-based
Summary of the method: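 Cells (625000 cells/ml, mixed with cAMP-d2) were preincubated 20 min at RT with compound ([…]). They were then stimulated 60 min at RT with a 3× PGE2 solution (1.5 nM) in PBS-IBMX and lysed for 20 min. cAMP was read by HTRF as the 665/620 nm ratio ×10000, with antagonism seen as a rise in FRET signal.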

[3] = system: fertilizability of oocytes or cumulus-oocyte complexes; assay: In-vivo effect on postovulatory in-vitro fertilization in the mouse (2-cell embryos); parameters: species or system mice (strain: B6D2F1); details: vehicle 36.3 ± 9.5
From the text: 7. In-Vivo Effect on Postovulatory In-Vitro Fertilization in the Mouse
Substances can influence fertility by lowering fertilizability of oocytes or cumulus-oocyte complexes. To examine such effects, substances can be administered in vivo and, after ovulation of cumulus-oocyte complexes, the latter are subjected to in-vitro fertilization. The in-vitro fertilization rate in the absence of test substance allows conclusions to be drawn on the in-vivo effects of the test substances.
Immature female mice (strain: B6D2F1, Charles River, Suelzfeld, age: 19-25 days) were kept in Makrolon cages in rooms with controlled lighting (12 hours of darkness: 12 hours of light), fed with a standard diet and provided with water ad libitum.
The mice were primed with PMSG (Pregnant Mare Serum Gonadotropin) (10 IU/animal i.p.). After 48 hours, by administration of 10 IU/animal i.p., an ovulation-triggering stimulus (hCG, human Chorion Gonadotropin) was generated in the animals. EP2 receptor antagonists were dissolved in benzyl benzoate/castor oil (1+4 v/v) and administered in a volume of 0.1 ml s.c. 1 hour prior to hCG (n=5 animals per group). The COX inhibitor was suspended in a carrier liquid (85 mg of Myrj®53 polyoxyl(50)stearate; CAS No. 9004-99-3) in 100 ml of 0.9% w/v NaCl solution), and the appropriate dose was administered in a volume of 2 ml/kg of body weight orally 1 hour prior to hCG. Fourteen hours after administration of hCG, the animals were sacrificed. Ovulated oocytes and cumulus-oocyte complexes were obtained from the ovarii bursa and/or the oviduct and subjected to in-vitro fertilization, with a sperm number of 40 000 sperms/0.5 ml for 1 hour being used for fertilization. Twenty-four hours after incubation with the sperms, the number of fertilized oocytes and the number of 2-cell embryos per animal were determined.

ovulation = details: cited from earlier work
[4] = system: fertility of the female rat; assay: Single administration of EP2 receptor antagonists and COX inhibitors alone or in combination, fertility of the rat (implantation sites); assay type: in vivo, female Han Wistar rats
Experimental: 6. Effect of a Single Administration of EP2 Receptor Antagonists and COX Inhibitors Alone or in Combination on the Fertility of the Rat
In the experiments below, female Han Wistar rats having a weight of 200-270 g were used. The animals were kept in Makrolon cages in rooms with controlled lighting (12 hours of darkness; 12 hours of light), fed with a standard diet and provided with water ad libitum.
EP2 receptor antagonists were dissolved in benzyl benzoate/castor oil (1+4 v/v), and the dose was administered in a volume of 1 ml/kg of body weight s.c. Optionally, EP2 receptor antagonists were also administered orally in the same vehicle as the COX inhibitors (see below). […]
The COX inhibitors were suspended in a carrier liquid (85 mg of Myrj®53 polyoxyl(50)stearate; CAS No. 9004-99-3) in 100 ml of 0.9% w/v NaCl solution), and the dose corresponding to the treatment group was administered in a volume of 2 ml/kg of body weight.
Prior to the start of the experiment, two cycles were observed using vaginal swabs. Only animals having a regular 4-day cycle were used in the experiment. The animals were randomized to the treatment groups.
The animals were treated once in the proestrus, the day in the cycle when the LH peak occurs in the evening, with the test substances either alone or in combination. On the evening of the proestrus, the female animals mated with a male rat. Successive mating was confirmed by detection of vaginal sperms in the vaginal swab the next morning. The effect on fertility was determined 9-15 days after mating by the number of implantation sites of the animals. […]

[5] = single administration in proestrus, Indomethacin 1 mg/animal, 16:00
[6] = Table 6.3, proestrus, Piroxicam 2 mg/animal, 12:30
[7] = single administration in proestrus, Piroxicam 2 mg/animal, 7:00
[8] = single administration in proestrus, Piroxicam 2 mg/animal, 13:00
[9] = single administration in proestrus, Piroxicam 2 mg/animal, 18:00, data of n = 5 animals

Chain of EP2 subtype of the human PGE2 receptor (hEP2 receptor) (P43116 whole entry): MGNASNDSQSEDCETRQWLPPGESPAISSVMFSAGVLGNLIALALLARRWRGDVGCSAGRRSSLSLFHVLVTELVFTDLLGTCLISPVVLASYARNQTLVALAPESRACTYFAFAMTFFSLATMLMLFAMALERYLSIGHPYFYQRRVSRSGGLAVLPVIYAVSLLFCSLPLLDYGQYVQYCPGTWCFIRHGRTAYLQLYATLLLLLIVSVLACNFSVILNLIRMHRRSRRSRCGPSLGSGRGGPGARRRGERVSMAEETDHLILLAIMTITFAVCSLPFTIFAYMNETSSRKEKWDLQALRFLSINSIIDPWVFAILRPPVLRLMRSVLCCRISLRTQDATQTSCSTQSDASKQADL

COCCNC(=O)c1ccc2nn(CC3CCN(C(=O)c4ccc(Oc5ccc(C(F)(F)F)cc5)cc4)CC3)cc2c1C [Example 17, N-(2-methoxyethyl)-4-methyl-2-[(1-{4-[4-(trifluoromethyl)phenoxy]benzoyl}piperidin-4-yl)methyl]-2H-indazole-5-carboxamide]
influence on the fertilizability of ovulated cumulus-oocyte complexes [1]: dose-dependent influence on the fertilizability of ovulated cumulus-oocyte complexes

Cc1c(C(=O)NCC(F)(F)F)ccc2nn(CC3CCN(C(=O)c4ccc(Oc5ccc(C(F)(F)F)cc5)cc4)CC3)cc12 [Example E126, 4-methyl-N-(2,2,2-trifluoroethyl)-2-[(1-{4-[4-(trifluoromethyl)phenoxy]benzoyl}piperidin-4-yl)methyl]-2H-indazole-5-carboxamide]
pIC50 [2]: < 7.30 | 2-Cell embryos per animal (mean ± SD) ([3]; E126 0.1 mg/animal s.c. 1 hour prior to hCG): 30.8 ± 7.3 | 2-Cell embryos per animal (mean ± SD) ([3]; E126 0.5 mg/animal s.c. 1 hour prior to hCG): 12.6 ± 3.6

COc1ccc2c(c1)c(CC(=O)O)c(C)n2C(=O)c1ccc(Cl)cc1 [Indomethacin, indomethacin, reference compound]
effect on ovulation (ovulation; 2×100 mg per day over 5 days (Killick and Elstein 1987)): inhibition of ovulation | delay of ovulation (ovulation; 3×50 mg per day for at least 3 days, 6 women, in 5 cases (Athanasious et al.)): 2 to 12 days | Absolute implantations number of 6 animals [4, 5]: 67 | Implantations per animal (mean ± SD) [4, 5]: 11.2 ± 2.9

CN1C(C(=O)Nc2ccccn2)=C(O)c2ccccc2S1(=O)=O [Piroxicam, piroxicam, reference compound]
Absolute implantations number of 6 animals [4, 6]: 71 | Implantations per animal (mean ± SD) [4, 6]: 11.8 ± 3.7 | Absolute implantations number of 6 animals [4, 7]: 81 | Implantations per animal (mean ± SD) [4, 7]: 13.5 ± 1.0 | Absolute implantations number of 6 animals [4, 8]: 68 | Implantations per animal (mean ± SD) [4, 8]: 11.3 ± 1.6 | Absolute implantations number of 6 animals [4, 9]: 53* | Implantations per animal (mean ± SD) [4, 9]: 10.6 ± 1.5 | 2-Cell embryos per animal (mean ± SD) ([3]; Piroxicam 0.1 mg/animal orally 1 hour prior to hCG): 10.8 ± 3.8

— US9655887B2, “Pharmaceutical composition and the use thereof, and application regime of said pharmaceutical composition for on-demand contraception” (BAYER PHARMA AKTIENGESELLSCHAFT, priority 2013, dated 2017)
